Results reported in patent US20230016424A1, “HYBRID AMIDE DERIVATIVES OF AMPHOTERICIN B” (The Board of Trustees of the University of Illinois, priority 2019, published 2023).
Values after ≈ are worked out from the molar mass of the structure shown.

Key:
[1] = tested on: C. albicans; assay: MIC; assay type: cell-based
[2] = tested on: C. albicans SN250, C. albicans, C. krusei, C. glabrata, C. tropicalis, A. fumigatus 91, 1163, 1100; assay: Average MIC over the tested strains; assay type: cell-based; settings: for MIC: average over the 8 listed strains; for Average MIC for AmB analogue: value of the corresponding AmB analogue, not of the C2’epi compound
[3] = tested on: C. krusei; assay: MIC; assay type: cell-based
[4] = UV-Vis sterol binding assay
Protocol: However, an alternative method was developed for reproducible formation of homogenous AmB and C2′epiAmB sterol sponge aggregates in vitro. Using these preparations, a quantitative UV-Vis and Principle Component (PCA) based assay for determining the apparent KDs for the binding of AmB and C2′epiAmB to ergosterol and cholesterol (FIGS. 5A-5D) was developed.
UV-Vis Binding Assay (FIG. 21A): The protocol for the sterol binding assay (UV-Vis) was developed in our lab. Compounds were dissolved in DMSO at a final concentration of 1 mM. Sterol were first dissolved in CHCl3 (>200 mM) and then diluted to 1 mM concentration with DMSO. To synthesize the complex 1 ul of compound solution was taken in a clean eppendorf tube (2 ml) and sterol solution (volume depends on the stoichiometry) was added to it and the volume was made up to 20 ul with DMSO. 0.98 ml of PBS buffer was added to the Eppendorf tube and mixed properly. The absorbance of the solution was measured after 30 mins of incubation.

[5] = tested on: human erythrocytes; assay: MHC hemolysis assay; assay type: cell-based; settings: hemolysis, human erythrocytes, 37° C. 2 hours
Protocol: MHC (FIG. 21B): The protocol for the hemolysis assay was adapted from the report of Paquet and coworkers (Chem. Eur. J. 2008, 14, 2465-2481). Whole human blood (sodium heparin) was purchased from Bioreclamation LLC (Westbury, N.Y.) and stored at 4° C. and used within two days of receipt. To a 2.0 mL eppendorf tube, 1 mL of whole human blood was added and centrifuged at 10,000 g for 2 minutes. The supernatant was removed and the erythrocyte pellet was washed with 1 mL of sterile saline and centrifuged at 10,000 g for 2 minutes. The saline wash was repeated for a total of three washes. The erythrocyte pellet was suspended in 1 mL of RBC buffer (10 mM NaH2PO4, 150 mM NaCl, 1 mM MgCl2, pH 7.4) to form the erythrocyte stock suspension.
Compounds were prepared as >15 mM stock solutions in DMSO and serially diluted to the following concentrations with DMSO: 7689, 5126, 2563, 2050, 1538, 1025, 769, 513, 384, 256, 205, 154, 103, 77, 51, 26 μM. To a 0.2 mL PCR tube, 24 μL of RBC buffer and 1 μL of compound stock solution were added, which gave final concentrations of […]. Positive and negative controls were prepared by adding 1 μL of DMSO to MilliQ water or RBC buffer, respectively to 0.2 mL PCR tube. To each PCR tube, 0.63 μL of the erythrocyte stock suspension was added and mixed by inversion. The samples were incubated at 37° C. for 2 hours. The samples were mixed by inversion and centrifuged at 10,000 g for 2 minutes. 15 μL of the supernatant from each sample was added to a 384-well place. Absorbances were read at 540 nm using a Biotek H1 Synergy Hybrid Reader (Wanooski, Vt.). Experiments were performed in triplicate and the reported MHC represents an average of three experiments.

[6] = tested on: A. fumigatus 1100; assay: MIC; assay type: cell-based
[7] = tested on: C. tropicalis; assay: MIC; assay type: cell-based
[8] = tested on: C. albicans SN250; assay: MIC; assay type: cell-based, Candida albicans
[9] = tested on: A. fumigatus 91; assay: MIC; assay type: cell-based
[10] = tested on: A. fumigatus 1163; assay: MIC; assay type: cell-based
[11] = tested on: C. glabrata; assay: MIC; assay type: cell-based
[12] = tested on: human red blood cells and primary hREC; assay: Toxicity to human cells; assay type: cell-based
Excerpt: (§1) This key discovery opened a path to the rational development of a non-toxic AmB variant. To probe its predicted role in sterol binding, the hydroxyl group was synthetically deleted at the C2′ position on the mycosamine appendage. […] Consistent with the sterol sponge model, this derivative retained good activity against yeast but, most importantly, was nontoxic to human red blood cells and primary (hREC) (FIG. 2B).
(§2) A practical 11-step synthesis of C2′epiAmB using a frontier site-selective acylation method was developed (FIG. 4). Wilcock, B. C. et al., Nat Chem 2012, 4 (12), 996-1003; Uno, B. E. A synthesis enabled understanding of Amphotericin B leading to derivatives with improved therapeutic indices. University of Illinois at Urbana-Champaign, 2014. The sterol binding and cell killing activities was then determined.

[13] = isothermal titration calorimetry (ITC) sterol binding; settings: for Cholesterol binding by ITC: within the detection limits of ITC
Excerpt: as §1, §2

[14] = tested on: A. fumigatus (AF293, A1163, ATC204305, AF91); assay type: cell-based
[15] = tested on: 40 Aspergillus clinical isolates, including azole-resistant A. fumigatus, A. flavus, and A. terreus; assay: Antifungal testing against 40 Aspergillus clinical isolates (Fungus Testing Laboratory); assay type: cell-based
[16] = tested on: rats; assay: IV toxicity in rats (BUN, ALT/AST, mortality, Cmax); assay type: in vivo; settings: IV 2, 10, and 17.5 mg/kg (the highest dose tested)
Protocol: >100 mg of C2′epiAmB was prepared, formulated it as the corresponding deoxycholate complex, and evaluated this derivative head-to-head with AmB-deoxycholate for toxicity and efficacy in animal models.

[17] = tested on: C. albicans; assay: Murine model of invasive candidiasis, neutropenic ICR/Swiss mice; assay type: in vivo; settings: single IP injection, deoxycholate complex, 16 mg/kg dose
Excerpt: Andes, D. et al., Antimicrobial agents and chemotherapy 2001, 45 (3), 922-6. In fact, the PD parameter that best correlates with outcome is Cmax-/MIC. The same was subsequently observed in a pulmonary model of invasive aspergillosis. Wiederhold, N. P. et al., Antimicrobial agents and chemotherapy 2006, 50 (2), 469-73.

[18] = target: CYP2D6 (Homo sapiens, UniProt P10635); assay: CYP Inhibition; settings: human
CYP2D6, sequence (P10635 whole entry): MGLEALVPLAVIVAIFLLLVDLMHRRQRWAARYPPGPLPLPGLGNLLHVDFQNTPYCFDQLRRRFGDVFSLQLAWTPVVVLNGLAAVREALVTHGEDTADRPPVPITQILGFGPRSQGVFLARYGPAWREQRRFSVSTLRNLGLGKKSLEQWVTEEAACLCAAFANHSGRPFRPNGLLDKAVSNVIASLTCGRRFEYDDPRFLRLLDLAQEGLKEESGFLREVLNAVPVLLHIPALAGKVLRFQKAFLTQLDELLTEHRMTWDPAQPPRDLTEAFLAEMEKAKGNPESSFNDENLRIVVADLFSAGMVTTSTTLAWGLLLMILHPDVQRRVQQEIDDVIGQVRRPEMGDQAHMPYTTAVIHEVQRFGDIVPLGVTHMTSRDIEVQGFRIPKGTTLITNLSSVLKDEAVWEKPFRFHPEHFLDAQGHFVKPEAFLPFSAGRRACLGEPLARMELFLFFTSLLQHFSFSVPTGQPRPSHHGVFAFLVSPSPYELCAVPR
Protocol: (§3) The working solutions of the test compounds and the standard inhibitors were prepared in DMSO (100× final concentration). 20 ul of substrate solution (5 in 1 cocktail) was added to the wells followed by 2 ul test compound solution was added. 158 ul of human liver microsome (HLM) was added to all the wells of the incubated plate and warmed to 37° C. for 10 mins. 20 ul of NADPH cofactor solution was then added to all the wells of incubated plate and incubated at 37° C. for 10 mins. At the time point the reaction was quenched by adding 400 uL of cold stop solution. The samples were centrifuged at 4000 rpm for 20 mins to precipitate protein. 100 ul supernatant was diluted with 100 ul of ultra pure water and analyzed using LCMS.

[19] = target: CYP2C9 (Homo sapiens, UniProt P11712); assay: CYP Inhibition; settings: human
CYP2C9, sequence (P11712 whole entry): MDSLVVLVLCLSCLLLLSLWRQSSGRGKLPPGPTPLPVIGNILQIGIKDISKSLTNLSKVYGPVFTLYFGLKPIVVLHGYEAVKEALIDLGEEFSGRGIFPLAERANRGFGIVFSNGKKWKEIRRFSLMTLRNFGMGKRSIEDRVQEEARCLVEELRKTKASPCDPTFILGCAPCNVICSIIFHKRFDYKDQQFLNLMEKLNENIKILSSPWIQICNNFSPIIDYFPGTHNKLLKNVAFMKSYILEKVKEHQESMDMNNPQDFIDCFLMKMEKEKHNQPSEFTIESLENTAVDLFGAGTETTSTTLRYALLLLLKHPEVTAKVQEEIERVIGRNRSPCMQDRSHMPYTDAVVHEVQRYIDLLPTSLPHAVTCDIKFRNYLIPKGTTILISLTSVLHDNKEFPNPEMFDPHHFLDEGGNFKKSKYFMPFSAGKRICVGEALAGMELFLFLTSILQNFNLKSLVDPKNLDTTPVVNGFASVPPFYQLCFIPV
Protocol: as §3

| SMILES | MIC C. albicans [1] [µM] | MIC [2] [µM] | Average MIC for AmB analogue [2] [μM] | MIC C. krusei [3] [µM] | Cholesterol Binding [4] | MHC [5] [µM] | MIC A. fumigatus 1100 [6] [µM] | MIC C. tropicalis [7] [µM] | MIC C. albicans SN250 [8] [µM] | MIC A. fumigatus 91 [9] [µM] | MIC A. fumigatus 1163 [10] [µM] | MIC C. glabrata [11] [µM] | Toxicity to human cells [12] | Ergosterol binding by ITC [13] | Cholesterol binding by ITC [13] | further results |
| --- | --- | --- | --- | --- | --- | --- | --- | --- | --- | --- | --- | --- | --- | --- | --- | --- |
| CNC(=O)C1C(O)CC2(O)CC(O)CC(O)C(O)CCC(O)CC(O)CC(=O)OC(C)C(C)C(O)C(C)C=CC=CC=CC=CC=CC=CC=CC(OC3OC(C)C(O)C(N)C3O)CC1O2 (centres unmarked) [BB] | 0.5 (≈ 0.469 µg/mL) | 1.734 | 0.336 | 2 (≈ 1.87 µg/mL) | No | >500 | 2 (≈ 1.87 µg/mL) | 0.5 (≈ 0.469 µg/mL) | 0.5 (≈ 0.469 µg/mL) | 4 (≈ 3.75 µg/mL) | 4 (≈ 3.75 µg/mL) | 0.375 (≈ 0.351 µg/mL) | – | – | – | – |
| CC1C=CC=CC=CC=CC=CC=CC=CC(OC2OC(C)C(O)C(N)C2O)CC2OC(O)(CC(O)CC(O)C(O)CCC(O)CC(O)CC(=O)OC(C)C(C)C1O)CC(O)C2C(=O)NCCN (centres unmarked) [BC] | 0.5 (≈ 0.483 µg/mL) | 1.750 | 0.563 | 4 (≈ 3.86 µg/mL) | Yes? | 250 | 2 (≈ 1.93 µg/mL) | 0.5 (≈ 0.483 µg/mL) | 0.5 (≈ 0.483 µg/mL) | 4 (≈ 3.86 µg/mL) | 2 (≈ 1.93 µg/mL) | 0.5 (≈ 0.483 µg/mL) | – | – | – | – |
| CC1C=CC=CC=CC=CC=CC=CC=CC(OC2CC(N)C(O)C(C)O2)CC2OC(O)(CC(O)CC(O)C(O)CCC(O)CC(O)CC(=O)OC(C)C(C)C1O)CC(O)C2C(=O)O (centres unmarked) [C2′deOAmB, reference compound] | – | – | – | – | – | – | – | – | – | – | – | – | nontoxic | bind ergosterol | not cholesterol | – |
| C[C@@H]1[C@H](O)[C@@H](C)/C=C/C=C/C=C/C=C/C=C/C=C/C=C/[C@H](O[C@@H]2O[C@H](C)[C@@H](O)[C@H](N)[C@H]2O)C[C@@H]2O[C@](O)(C[C@@H](O)C[C@@H](O)[C@H](O)CC[C@@H](O)C[C@@H](O)CC(=O)O[C@H]1C)C[C@H](O)[C@H]2C(=O)O [C2′epiAmB, C2′epi-Amphotericin B] | – | >6.844 | – | – | No | >500 | – | – | 0.5 (≈ 0.462 µg/mL) | – | – | – | not human cells | bind ergosterol | not (detectably) cholesterol | Average MIC ([2]; Table 13, C16 amides of C2’epiAmB): 9030 µM; Times less potent than AmB [14]: > 32 times; Times less potent than AmB [15]: 2-16 times; BUN, ALT/AST and mortality, rats [16]: no elevations in BUN or ALT/AST and no mortality; Fungal burden, murine invasive candidiasis [17]: outstanding reductions in fungal burden |
| C=C[C@H]1C[N@@]2CC[C@H]1C[C@@H]2[C@@H](O)c1ccnc2ccc(OC)cc12 [Quinidine, reference compound] | – | – | – | – | – | – | – | – | – | – | – | – | – | – | – | inhibition at 10 min, 3 µM [18]: 95.3% |
| Nc1ccc(S(=O)(=O)Nc2ccnn2-c2ccccc2)cc1 [Sulfaphenazole, reference compound] | – | – | – | – | – | – | – | – | – | – | – | – | – | – | – | inhibition at 10 min, 3 µM [19]: 69.7% |
